Assay results as given in publication PMC9077138, “An investigation on 3-acetyl-7-methoxy-coumarin Schiff bases and their Ru(II) metallates with potent antiproliferative activity and enhanced LDH and NO release” (RSC Advances, 2018).

Assays:
BSA = molecular target: T1, BSA (Bos taurus, UniProt P02769); assay: BSA tryptophan fluorescence quenching; type: binding, bovine
T1 construct: purchased HiMedia (Mumbai, India)
Excerpt: The obtained results confirmed the interaction of the ligands and complexes with serum albumins. The absorption spectra of the serum albumins in the absence and presence of ligands H2L^1–4 and the complexes 1–4 are given in Fig. S29 in the ESI. ^† On adding ligands and complexes 1–4 to albumins, the absorbance intensity of serum albumins was decreased with a red shift of 2 nm. The observed changes indicated a static quenching mechanism of serum albumins by the ligands and complexes (1–4). To obtain a quantitative insight into the quenching progression, the Stern–Volmer quenching constant (KSV) and the quenching constant (Kq) were calculated from the Stern–Volmer equation using the Io/ICorrversus [Q] plot (Table 4).[53] The observed linearity in the plots (Fig. 13) indicated the ability of the compounds to quench the emission intensity of serum albumins and the order of quenching constant of the compounds is complex 3 > complex 2 > complex 1 > complex 4 > H2L^3 > H2L^2 > H2L^1 > H2L^4.
Furthermore, the equilibrium binding constant and number of binding sites were evaluated by using the Scatchard equation. The Kbin values were derived from the graph between log[(Fo − F)/F] and log[Q] From the results, we confirmed that the Ru(II) complexes having a large hydrophobic area can interact more efficiently than the ligands with serum albumins via a static pathway. The higher binding affinity of the complexes over the ligands may be due to the efficient binding of protein moiety with the complexed metal ions. Here, the binding affinities of the complexes with serum albumins followed the same order as those with DNA binding studies, complex 3 > complex 2 > complex 1 > complex 4 > H2L^3 > H2L^2 > H2L^1 > H2L^4. Variation in the binding affinity of the compounds with serum albumins depends on the electron-donating ability of the ligand, i.e. the substitution on the N-terminal nitrogen atom. The binding capability of the compounds to serum albumins increased with the increase in electron-donating ability of the substituent on the terminal nitrogen of the coordinated thiosemicarbazone ligand. The obtained quenching constant and binding constant values of these new cyclometallated ruthenium(II) complexes agree well with those reported for other ruthenium(II) complexes.[31,44,54–56] […]
Serum albumin binding study
Bovine Serum Albumin (BSA) and human serum albumin were purchased from Hi Media, The protein binding study was performed by tryptophan fluorescence quenching experiments using bovine serum albumin (BSA, 10 µM) or human serum albumin (HSA, 10 µM) as the substrate in phosphate buffer (pH= 7.2). Quenching of the emission intensity of tryptophan residues of BSA at 346 nm (excitation wavelength at 280 nm)/ HSA at 345 nm (excitation wavelength at 290 nm) was monitored using ligands and complexes as quenchers with increasing concentration (10-100µM). Synchronous fluorescence spectra of BSA or HSA with various concentrations of the complexes were obtained from 300 to 400 nm when ∆λ = 60 nm and from 290 to 500 nm when ∆λ = 15 nm. For synchronous fluorescence spectra, the same concentrations of serum albumins and the compounds were also used and the spectra were measured at two different Δλ values (difference between the excitation and emission wavelengths of BSA), such as 15 and 60 nm. Fluorescence and synchronous measurements were performed using a 1 cm quartz cell on a JASCO FP 6600 spectrofluorimeter.
The quenching data can be analyzed according to the Stern-Volmer equation, […]
Io/Icorr =K SV[Q]+1 Eq (S2) where Iₒ is the emission intensity in the absence of compound, Icorr is the corrected emission intensity in the presence of compound, KSV is the quenching constant and [Q] is the concentration of the compound.
In order to correct the inner filter effect, the following equation used Icorr = Iobs*10 (Aexc+Aem)/2 where Icorr is the corrected fluorescence value, Iobs the measured fluorescence value, Aexc is […]

S. pneumonie = assay: In vitro antibacterial assay (zone of inhibition, MIC); type: cell-based, Streptococcus pneumonie; details: S. pneumonie
Method: (§1) The free ligands and their cyclometallated ruthenium(II) carbonyl complexes were screened for their in vitro antimicrobial activity against certain pathogenic bacterial and fungal species at three different concentrations using disc diffusion method.
(§2) Antimicrobial activities of [RuHClCO(PPh3)3], ligands H2L^1–4 and new organometallic Ru(II) complexes (1–4) were evaluated by agar well diffusion method[76] as reported, by taking Staphylococcus aureus, Streptococcus pneumonie, Pseudomonas aeruginosa, Salmonella paratyphi and fungus such as Candida albicans, Trichophyton rubrum, Aspergillus niger, Aspergillus fumigatus and Candida tropicalis. The above said all test organisms were obtained from the MTCC, Chandigarh, India and Microbiological laboratory, Coimbatore, Tamil Nadu, India. The antimicrobial activity of the test compounds was checked with various concentrations (25 μg ml^−1, 50 μg ml^−1 and 100 μg ml^−1) against all the test pathogens. Gentamicin and ketoconazole were used as positive controls to study the antibacterial and antifungal activities respectively. Each experiment was performed in triplicate and the results are represented as average zone of inhibition and minimum inhibitory concentration of all the test pathogens.

S. aureus = assay: as above; type: cell-based, Staphylococcus aureus; details: S. aureus
Method: as §1, §2

S. paratyphi = assay: as above; type: cell-based, Salmonella paratyphi
Excerpt: The free ligands and their cyclometallated ruthenium(II) carbonyl complexes were screened for their in vitro antimicrobial activity against certain pathogenic bacterial and fungal species at three different concentrations using disc diffusion method. […] Tested complexes had better antimicrobial activity than the ligands against all pathogens. This may be explained by Tweedy's chelation theory.[61] Coordination of ligands reduce the polarity of the metal ion essentially by partial sharing of its positive charge with the donor groups within the chelate ring system formed during the coordination and leading to the increase in lipophilic nature of the central metal atom, which favours the effective permeation through the lipid layer of microorganism.[61,62] […] When tested against T. rubrum, the activity of the complexes in the order of 3 > 2 > 1 > 4. In antibacterial studies, the complex 3 was effective against S. aureus followed by complex 2, 1 and 4 and in the case of S. pneumonie the activity of the complexes follows the order of 3 > 1 > 4 > 2. […] When tested against S. paratyphi complex 1 stood out as good followed by the complexes 4, 3 and 2 respectively.
as §2

P. aeruginosa = assay: as above; type: cell-based, Pseudomonas aeruginosa; details: P. aeruginosa
Method: as §1, §2

T1 sequence (P02769 25-607): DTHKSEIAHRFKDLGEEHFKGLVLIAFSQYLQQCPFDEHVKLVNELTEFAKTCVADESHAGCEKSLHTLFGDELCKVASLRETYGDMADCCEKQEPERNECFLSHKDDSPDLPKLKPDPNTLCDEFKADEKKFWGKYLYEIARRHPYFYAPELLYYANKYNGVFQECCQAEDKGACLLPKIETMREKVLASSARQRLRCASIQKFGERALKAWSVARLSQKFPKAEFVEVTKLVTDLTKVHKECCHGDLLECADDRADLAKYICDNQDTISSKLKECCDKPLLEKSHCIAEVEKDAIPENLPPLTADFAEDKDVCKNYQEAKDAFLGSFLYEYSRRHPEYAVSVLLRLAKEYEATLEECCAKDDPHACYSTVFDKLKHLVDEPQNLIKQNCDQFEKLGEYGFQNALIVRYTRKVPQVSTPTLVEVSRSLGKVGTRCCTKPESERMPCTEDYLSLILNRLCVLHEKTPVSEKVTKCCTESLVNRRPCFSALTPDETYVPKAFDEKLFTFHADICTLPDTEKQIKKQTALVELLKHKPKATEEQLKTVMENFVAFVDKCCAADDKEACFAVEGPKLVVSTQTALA

COc1ccc2[c]3c(c(=O)oc2c1)C(C)=[N+]1N=C(Nc2ccccc2)[S][Ru-4]31([C]#[O+])([P+](c1ccccc1)(c1ccccc1)c1ccccc1)[P+](c1ccccc1)(c1ccccc1)c1ccccc1 [Complex 4, [Ru(7MAC-ptsc)(CO)(PPh3)2]]
Quenching constant kq (BSA; BSA): 1.454 ± 0.030 × 10^12 M^−1 s^−1 | Stern–Volmer KSV (BSA; BSA): 1.454 ± 0.030 × 10^4 M^−1 | number of binding sites n (BSA; BSA): 1.0486 ± 0.019 | Binding constant Kbin (BSA; BSA, Scatchard equation): 2.178 ± 0.019 × 10^4 M^−1 | quenching of BSA fluorescence intensity at 346 nm (BSA; compounds 10–100 μM, BSA 10 μM): 58.68% | Minimum inhibitory concentration (MIC); head: IC50 VALUES (S. pneumonie): 15.89 ± 0.12 µM | Zone of inhibition (S. pneumonie; 50 µg/ml): 12.31±0.48 mm | Zone of inhibition (S. pneumonie; 100 µg/ml): 16.54±0.12 mm | Minimum inhibitory concentration (MIC); head: IC50 VALUES (S. aureus): 18.25 ± 0.11 µM | Zone of inhibition (S. aureus; 50 µg/ml): 12.21±0.42 mm | Zone of inhibition (S. aureus; 100 µg/ml): 18.11±0.11 mm | Zone of inhibition (S. paratyphi; 50 µg/ml): 12.31±0.38 mm | Zone of inhibition (S. paratyphi; 100 µg/ml): 17.55±0.54 mm | Minimum inhibitory concentration (MIC); head: IC50 VALUES (P. aeruginosa): 15.66 ± 0.16 µM | Zone of inhibition (P. aeruginosa; 50 µg/ml): 12.33±0.53 mm | Zone of inhibition (P. aeruginosa; 100 µg/ml): 16.85±0.62 mm
